Source: patent publication US10857246B2, “Nuclear imaging and radiotherapeutics agents targeting carbonic anhydrase IX and uses thereof” (THE JOHNS HOPKINS UNIVERSITY, priority 2015, dated 2020)
Where “and” joins values, the source holds several entries; their conditions need not be identical. Equal values may be shown once.

Tested on: CAIX-expressing SK-RC-52 tumors
Assay: Biodistribution in mice bearing SK-RC-52 xenografts
Assay type: in vivo
Conditions: for Biodistribution Bladder / Biodistribution Blood / Biodistribution Brain / Biodistribution Fat / Biodistribution Heart / Biodistribution Kidney / Biodistribution Liver / Biodistribution Lung / Biodistribution Muscle / Biodistribution Pancreas / Biodistribution Small intestine / Biodistribution Spleen / Biodistribution Stomach / Biodistribution Tumor / Tumor/Kidney ratio / Tumor/Blood ratio / Tumor/Muscle ratio: 740 kBq i.v.
Experimental: Animal experiments were performed in accordance with protocols approved by the Johns Hopkins Animal Care and Use Committee (ACUC). Six-week-old female NOD/SCID mice were purchased from the Animal Resource Core of the Sidney Kimmel Comprehensive Cancer Center of Johns Hopkins and were subcutaneously injected in the lower left flank or upper right flank with 1×10^6 SK-RC-52 cells in RPMI 1640 GlutaMAX™ media (Life Technologies, Frederick, Md.) supplemented with 1% fetal bovine serum (FBS). Mice were monitored for tumor size and used for SPECT/CT imaging when the size of the tumor reached 100 mm^3.
Mice bearing SK-RC-52 xenografts at lower left flank were injected intravenously with 740 kBq (20 μCi) of [^111In]XYIMSR-01, or [^177Lu]XYIMSR-01 in 200 μL of PBS. For competitive blocking, same tumor bearing mice were injected with 740 kBq (20 μCi) of [^111In]XYIMSR-01 and 200 nmole of 8 in 200 μL of PBS. At 1 h, 4 h, 8 h, 24 h and 48 h post-injection, mice were sacrificed by cervical dislocation and the blood was immediately collected by cardiac puncture. Heart, lungs, pancreas, spleen, fat, brain, muscle, small intestines, liver, stomach, kidney, urinary bladder, and tumor were collected. Each organ was weighed and the tissue radioactivity was measured with an automated gamma counter (1282 Compugamma CS, Pharmacia/LKBNuclear, Inc., Mt. Waverly, Vic. Australia). The percentage of injected dose per gram of tissue (% ID/g) was calculated by comparison with samples of a standard dilution of the initial dose. All measurements were corrected for radioactive decay.
Data were expressed as mean±standard deviation (SD). Prism software (GraphPAD, San Diego, Calif.) was used to determine statistical significance. Statistical significance was calculated using a paired t test. P-values <0.0001 were considered significant.
Mice bearing SK-RC-52 xenografts within the lower left flank were injected intravenously with 740 kBq (20 μCi) of [Al^18F]XYIMSR-04 in 200 μL of PBS. At specific 1 hour time point mentioned in the paper, mice (n=5) were sacrificed by cervical dislocation and the blood was immediately collected by cardiac puncture. Heart, lungs, pancreas, spleen, fat, brain, muscle, small intestines, liver, bone, stomach, kidney, urinary bladder, and tumor were collected. Each organ was weighed and the tissue radioactivity was measured with an automated gamma counter (1282 Compugamma CS, Pharmacia/LKBNuclear, Inc., Mt. Waverly, Vic. Australia). The percentage of injected dose per gram of tissue (% ID/g) was calculated by comparison with samples of a standard dilution of the initial dose. All measurements were corrected for radioactive decay. Data were expressed as mean±standard deviation (SD). Prism software (GraphPAD, San Diego, Calif.) was used to determine statistical significance. Statistical significance was calculated using a paired t test. P-values <0.0001 were considered significant.
Mice bearing SK-RC-52 xenografts within the upper right flank were injected intravenously with 740 kBq (20 μCi) of [^64Cu]XYIMSR-06 in 200 μL of PBS. For in vivo competition (binding specificity) studies, tumor-bearing mice were injected with 740 kBq (20 μCi) of [^64Cu]XYIMSR-06 and 200 nmole of 8 in 200 μL of PBS concurrently. At specific times after injection (1 h, 4 h, 8 h and 24 h), mice (n=5) were sacrificed by cervical dislocation with blood immediately collected by cardiac puncture. Heart, lungs, pancreas, spleen, fat, brain, muscle, small intestines, liver, stomach, kidney, urinary bladder, and tumor were also collected. Each organ was weighed and the tissue radioactivity was measured with an automated gamma counter (1282 Compugamma CS, Pharmacia/LKBNuclear, Inc., Mt. Waverly, Vic. Australia). The percentage of injected dose per gram of tissue (% ID/g) was calculated by comparison with samples of a standard dilution of the initial dose. All measurements were corrected for radioactive decay. Data were expressed as mean±standard deviation (SD). […]

CC(CCC(=O)N[C@@H](CC(=O)N[C@@H](CC(=O)N[C@@H](CCCCn1cc(CCCC(=O)Nc2nnc(S(N)(=O)=O)s2)nn1)C(=O)NCCOCCOCCNC(=S)Nc1ccc(CC2CN(CC(=O)[O-])CCN(CC(=O)[O-])CCN2CC(=O)O)cc1)C(=O)O)C(=O)O)(c1ccc(O)cc1)c1ccc(O)cc1.[64Cu+2] (some centres unmarked) [[^64Cu]XYIMSR-06]
Biodistribution Bladder (1 h post-injection): 11.12 % ID/g
Biodistribution Blood (1 h post-injection): 0.66 % ID/g
Biodistribution Brain (1 h post-injection): 1.46 % ID/g
Biodistribution Fat (1 h post-injection): 0.80 % ID/g
Biodistribution Heart (1 h post-injection): 3.41 % ID/g
Biodistribution Kidney (1 h post-injection): 33.65 % ID/g
Biodistribution Liver (1 h post-injection): 3.25 % ID/g
Biodistribution Lung (1 h post-injection): 25.52 % ID/g
Biodistribution Muscle (1 h post-injection): 1.28 % ID/g
Biodistribution Pancreas (1 h post-injection): 2.94 % ID/g
Biodistribution Small intestine (1 h post-injection): 7.35 % ID/g
Biodistribution Spleen (1 h post-injection): 0.36 % ID/g
Biodistribution Stomach (1 h post-injection): 14.80 % ID/g
Biodistribution Tumor (1 h post-injection): 14.47 % ID/g
Tumor/Kidney ratio (1 h post-injection): 0.4
Biodistribution Bladder (4 h post-injection): 17.05 % ID/g
Biodistribution Blood (4 h post-injection): 0.33 % ID/g
Biodistribution Brain (4 h post-injection): 0.29 % ID/g
Biodistribution Fat (4 h post-injection): 0.52 % ID/g
Biodistribution Heart (4 h post-injection): 1.78 % ID/g
Biodistribution Kidney (4 h post-injection): 19.99 % ID/g
Biodistribution Liver (4 h post-injection): 2.18 % ID/g
Biodistribution Lung (4 h post-injection): 12.03 % ID/g
Biodistribution Muscle (4 h post-injection): 0.70 % ID/g
Biodistribution Pancreas (4 h post-injection): 1.36 % ID/g
Biodistribution Small intestine (4 h post-injection): 4.15 % ID/g
Biodistribution Spleen (4 h post-injection): 0.24 % ID/g
Biodistribution Stomach (4 h post-injection): 8.19 % ID/g
Biodistribution Tumor (4 h post-injection): 19.31 % ID/g
Tumor/Blood ratio (4 h post-injection): 57.7
Tumor/Kidney ratio (4 h post-injection): 1.0
Tumor/Muscle ratio (4 h post-injection): 29.4
Biodistribution Bladder (8 h + block (200 nmole of 8)): 1.45 % ID/g
Biodistribution Blood (8 h + block (200 nmole of 8)): 0.08 % ID/g
Biodistribution Brain (8 h + block (200 nmole of 8)): 0.04 % ID/g
Biodistribution Fat (8 h + block (200 nmole of 8)): 0.05 % ID/g
Biodistribution Heart (8 h + block (200 nmole of 8)): 0.16 % ID/g
Biodistribution Kidney (8 h + block (200 nmole of 8)): 1.82 % ID/g
Biodistribution Liver (8 h + block (200 nmole of 8)): 0.55 % ID/g
Biodistribution Lung (8 h + block (200 nmole of 8)): 0.77 % ID/g
Biodistribution Muscle (8 h + block (200 nmole of 8)): 0.05 % ID/g
Biodistribution Pancreas (8 h + block (200 nmole of 8)): 0.14 % ID/g
Biodistribution Small intestine (8 h + block (200 nmole of 8)): 0.38 % ID/g
Biodistribution Spleen (8 h + block (200 nmole of 8)): 0.14 % ID/g
Biodistribution Stomach (8 h + block (200 nmole of 8)): 0.69 % ID/g
Biodistribution Tumor (8 h + block (200 nmole of 8)): 2.39 % ID/g
Tumor/Blood ratio (8 h + block (200 nmole of 8)): 32.0
Tumor/Kidney ratio (8 h + block (200 nmole of 8)): 1.3
Tumor/Muscle ratio (8 h + block (200 nmole of 8)): 53.0
Biodistribution Bladder (8 h post-injection): 7.43 % ID/g
Biodistribution Blood (8 h post-injection): 0.13 % ID/g
Biodistribution Brain (8 h post-injection): 0.24 % ID/g
Biodistribution Fat (8 h post-injection): 0.28 % ID/g
Biodistribution Heart (8 h post-injection): 0.65 % ID/g
Biodistribution Kidney (8 h post-injection): 8.14 % ID/g
Biodistribution Liver (8 h post-injection): 0.99 % ID/g
Biodistribution Lung (8 h post-injection): 4.64 % ID/g
Biodistribution Muscle (8 h post-injection): 0.21 % ID/g
Biodistribution Pancreas (8 h post-injection): 0.47 % ID/g
Biodistribution Small intestine (8 h post-injection): 1.98 % ID/g
Biodistribution Spleen (8 h post-injection): 0.18 % ID/g
Biodistribution Stomach (8 h post-injection): 4.02 % ID/g
Biodistribution Tumor (8 h post-injection): 16.74 % ID/g
All other tumor/organ ratios (24 h): > 10.0
Biodistribution Bladder (24 h + block (200 nmole of 8)): 0.45 % ID/g
Biodistribution Blood (24 h + block (200 nmole of 8)): 0.01 % ID/g
Biodistribution Brain (24 h + block (200 nmole of 8)): 0.02 % ID/g
Biodistribution Fat (24 h + block (200 nmole of 8)): 0.01 % ID/g
Biodistribution Heart (24 h + block (200 nmole of 8)): 0.08 % ID/g
Biodistribution Kidney (24 h + block (200 nmole of 8)): 0.48 % ID/g
Biodistribution Liver (24 h + block (200 nmole of 8)): 0.42 % ID/g
Biodistribution Lung (24 h + block (200 nmole of 8)): 0.29 % ID/g
Biodistribution Muscle (24 h + block (200 nmole of 8)): 0.04 % ID/g
Biodistribution Pancreas (24 h + block (200 nmole of 8)): 0.07 % ID/g
Biodistribution Small intestine (24 h + block (200 nmole of 8)): 0.19 % ID/g
Biodistribution Spleen (24 h + block (200 nmole of 8)): 0.11 % ID/g
Biodistribution Stomach (24 h + block (200 nmole of 8)): 0.29 % ID/g
Biodistribution Tumor (24 h + block (200 nmole of 8)): 1.20 % ID/g
Tumor/Blood ratio (24 h + block (200 nmole of 8)): 27.1
Tumor/Kidney ratio (24 h + block (200 nmole of 8)): 2.4
Tumor/Muscle ratio (24 h + block (200 nmole of 8)): 49.0
Biodistribution Bladder (24 h post-injection): 0.34 % ID/g
Biodistribution Blood (24 h post-injection): 0.00 % ID/g
Biodistribution Brain (24 h post-injection): 0.13 % ID/g
Biodistribution Fat (24 h post-injection): 0.03 % ID/g
Biodistribution Heart (24 h post-injection): 0.12 % ID/g
Biodistribution Kidney (24 h post-injection): 0.90 % ID/g
Biodistribution Liver (24 h post-injection): 0.38 % ID/g
Biodistribution Lung (24 h post-injection): 1.27 % ID/g
Biodistribution Muscle (24 h post-injection): 0.02 % ID/g
Biodistribution Pancreas (24 h post-injection): 0.21 % ID/g
Biodistribution Small intestine (24 h post-injection): 0.47 % ID/g
Biodistribution Spleen (24 h post-injection): 0.09 % ID/g
Biodistribution Stomach (24 h post-injection): 0.65 % ID/g
Biodistribution Tumor (24 h post-injection): 6.2 % ID/g and 6.23 % ID/g
Tumor/Blood ratio (24 h post-injection): 142.6
Tumor/Muscle ratio (24 h post-injection): 261.3
Tumor uptake on co-injection of 200 nmole of 8 (mouse, in vivo): blocked tumor uptake
Radiotracer uptake within liver (within 24 h): no significant radiotracer uptake within liver

CC(CCC(=O)N[C@@H](CC(=O)N[C@@H](CC(=O)N[C@@H](CCCCn1cc(CCCC(=O)Nc2nnc(S(N)(=O)=O)s2)nn1)C(=O)NCCOCCOCCNC(=O)CN1CCN2CCN(CC1)CC(=O)[O][Al]([18F])[O]C(=O)C2)C(=O)O)C(=O)O)(c1ccc(O)cc1)c1ccc(O)cc1 [[Al^18F]XYIMSR-04]
Biodistribution Kidney (1 h post-injection): 50.84 ± 2.65 % ID/g
Biodistribution Muscle (1 h post-injection): 1.74 ± 0.58 % ID/g
Biodistribution Small intestine (1 h post-injection): 9.59 ± 1.04 % ID/g
Tumor/Kidney ratio (1 h post-injection): 0.28 and 0.28 ± 0.03
Tumor/Muscle ratio (1 h post-injection): 9.74 and 9.74 ± 2.9
